Measured values: the OligoGym collection
HELM strings list units from the 5' end as sugar, base in round brackets, then linkage (d deoxyribose, r ribose, m 2'-O-methyl, p phosphodiester). Strings are as the collection lists them, not checked against the first reports. ss, as = sense and antisense strand; [fl2r] = 2'-fluoro
Further: test system not given here.

Details: siRNA
“RNA1{r(A)p.r(G)p.r(A)p.r(A)p.r(A)p.r(A)p.r(G)p.m(C)p.r(A)p.r(G)p.r(C)p.r(G)p.r(A)p.m(U)p.r(A)p.r(C)p.r(G)p.r(C)p.r(U)p.r(T)p.r(T)}|RNA2{r(A)p.r(G)p.r(C)p.r(G)p.r(U)p.r(A)p.r(U)p.r(C)p.r(G)p.r(C)p.m(U)p.r(G)p.r(C)p.r(U)p.r(U)p.r(U)p.r(U)p.r(C)p.r(U)p.r(T)p.r(T)}$$$RNA1{StrandType:ss}|RNA2{StrandType:as}$” gave a target mRNA knockdown of 68%. Work on “RNA1{r(A)p.r(G)p.r(A)p.r(A)p.r(A)p.r(A)p.r(G)p.r(C)p.r(A)p.r(G)p.r(C)p.r(G)p.r(A)p.m(U)p.r(A)p.r(C)p.r(G)p.r(C)p.r(U)p.r(T)p.r(T)}|RNA2{r(A)p.r(G)p.r(C)p.r(G)p.r(U)p.r(A)p.r(U)p.r(C)p.r(G)p.r(C)p.r(U)p.r(G)p.r(C)p.r(U)p.r(U)p.r(U)p.r(U)p.r(C)p.r(U)p.r(T)p.r(T)}$$$RNA1{StrandType:ss}|RNA2{StrandType:as}$” yielded a target mRNA knockdown of 69%. “RNA1{r(A)p.r(G)p.r(A)p.r(A)p.r(A)p.r(C)p.r(G)p.m(C)p.r(A)p.r(G)p.m(U)p.m(A)p.r(A)p.r(U)p.r(C)p.r(C)p.r(G)p.r(G)p.r(A)p.r(T)p.r(T)}|RNA2{r(U)p.r(C)p.r(C)p.r(G)p.r(G)p.r(A)p.r(U)p.m(U)p.r(A)p.r(C)p.m(U)p.r(G)p.r(C)p.r(G)p.r(U)p.r(U)p.r(U)p.r(C)p.r(U)p.r(T)p.r(T)}$$$RNA1{StrandType:ss}|RNA2{StrandType:as}$” gave a target mRNA knockdown of 78%. Work on “RNA1{r(A)p.r(G)p.r(A)p.r(A)p.r(A)p.r(C)p.r(G)p.m(C)p.r(A)p.r(G)p.m(U)p.r(A)p.r(A)p.r(U)p.r(C)p.r(C)p.r(G)p.r(G)p.r(A)p.r(T)p.r(T)}|RNA2{r(U)p.r(C)p.r(C)p.r(G)p.r(G)p.r(A)p.r(U)p.m(U)p.r(A)p.r(C)p.m(U)p.r(G)p.r(C)p.r(G)p.r(U)p.r(U)p.r(U)p.r(C)p.r(U)p.r(T)p.r(T)}$$$RNA1{StrandType:ss}|RNA2{StrandType:as}$” yielded a target mRNA knockdown of 81%. “RNA1{r(A)p.r(G)p.r(A)p.r(A)p.r(A)p.r(C)p.r(G)p.r(C)p.r(A)p.r(G)p.m(U)p.m(A)p.r(A)p.r(U)p.r(C)p.r(C)p.r(G)p.r(G)p.r(A)p.r(T)p.r(T)}|RNA2{r(U)p.r(C)p.r(C)p.r(G)p.r(G)p.r(A)p.r(U)p.m(U)p.r(A)p.r(C)p.r(U)p.r(G)p.r(C)p.r(G)p.r(U)p.r(U)p.r(U)p.r(C)p.r(U)p.r(T)p.r(T)}$$$RNA1{StrandType:ss}|RNA2{StrandType:as}$” gave a target mRNA knockdown of 85%. “RNA1{r(A)p.r(G)p.r(A)p.r(A)p.r(A)p.r(C)p.r(G)p.r(C)p.r(A)p.r(G)p.m(U)p.r(A)p.r(A)p.r(U)p.r(C)p.r(C)p.r(G)p.r(G)p.r(A)p.r(T)p.r(T)}|RNA2{r(U)p.r(C)p.r(C)p.r(G)p.r(G)p.r(A)p.r(U)p.r(U)p.r(A)p.r(C)p.m(U)p.r(G)p.r(C)p.r(G)p.r(U)p.r(U)p.r(U)p.r(C)p.r(U)p.r(T)p.r(T)}$$$RNA1{StrandType:ss}|RNA2{StrandType:as}$” gave a target mRNA knockdown of 82%. For “RNA1{r(A)p.r(G)p.r(A)p.r(A)p.r(G)p.[fl2r](U)p.r(A)p.r(C)p.[fl2r](C)p.r(A)p.r(G)p.r(G)p.r(A)p.r(G)p.r(G)p.r(C)p.r(G)p.r(U)p.r(U)p.r(T)p.r(T)}|RNA2{r(A)p.r(A)p.r(C)p.r(G)p.r(C)p.r(C)p.r(U)p.r(C)p.r(C)p.[fl2r](U)p.r(G)p.r(G)p.[fl2r](U)p.r(A)p.r(C)p.r(U)p.r(U)p.r(C)p.r(U)p.r(T)p.r(T)}$$$RNA1{StrandType:ss}|RNA2{StrandType:as}$”, the target mRNA knockdown was 57%. Substance “RNA1{r(A)p.r(G)p.r(A)p.r(A)p.r(G)p.[fl2r](U)p.r(A)p.r(C)p.r(C)p.r(A)p.r(G)p.r(G)p.r(A)p.r(G)p.r(G)p.r(C)p.r(G)p.r(U)p.r(U)p.r(T)p.r(T)}|RNA2{r(A)p.r(A)p.r(C)p.r(G)p.r(C)p.r(C)p.r(U)p.r(C)p.r(C)p.[fl2r](U)p.r(G)p.r(G)p.r(U)p.r(A)p.r(C)p.r(U)p.r(U)p.r(C)p.r(U)p.r(T)p.r(T)}$$$RNA1{StrandType:ss}|RNA2{StrandType:as}$” has a target mRNA knockdown of 60%. For “RNA1{r(A)p.r(G)p.r(A)p.r(A)p.r(G)p.m(U)p.r(A)p.r(C)p.m(C)p.r(A)p.r(G)p.r(G)p.r(A)p.r(G)p.m(G)p.r(C)p.r(G)p.r(U)p.r(U)p.r(T)p.r(T)}|RNA2{r(A)p.r(A)p.r(C)p.r(G)p.r(C)p.r(C)p.r(U)p.r(C)p.r(C)p.m(U)p.r(G)p.r(G)p.m(U)p.r(A)p.r(C)p.r(U)p.r(U)p.r(C)p.r(U)p.r(T)p.r(T)}$$$RNA1{StrandType:ss}|RNA2{StrandType:as}$”, the target mRNA knockdown was 68%. For “RNA1{r(A)p.r(G)p.r(A)p.r(A)p.r(G)p.m(U)p.r(A)p.r(C)p.r(C)p.r(A)p.r(G)p.r(G)p.r(A)p.r(G)p.r(G)p.r(C)p.r(G)p.r(U)p.r(U)p.r(T)p.r(T)}|RNA2{r(A)p.r(A)p.r(C)p.r(G)p.r(C)p.r(C)p.r(U)p.r(C)p.r(C)p.r(U)p.r(G)p.r(G)p.m(U)p.r(A)p.r(C)p.r(U)p.r(U)p.r(C)p.r(U)p.r(T)p.r(T)}$$$RNA1{StrandType:ss}|RNA2{StrandType:as}$”, the target mRNA knockdown was 69%. “RNA1{r(A)p.r(G)p.r(A)p.r(A)p.r(G)p.r(G)p.r(A)p.m(C)p.m(U)p.r(A)p.m(C)p.m(U)p.r(A)p.r(A)p.m(C)p.m(C)p.m(U)p.m(C)p.m(C)p.r(T)p.r(T)}|RNA2{r(G)p.r(G)p.r(A)p.r(G)p.r(G)p.r(U)p.r(U)p.r(A)p.r(G)p.r(U)p.r(A)p.r(G)p.r(U)p.r(C)p.r(C)p.r(U)p.r(U)p.r(C)p.r(U)p.r(T)p.r(T)}$$$RNA1{StrandType:ss}|RNA2{StrandType:as}$” gave a target mRNA knockdown of 80%. “RNA1{r(A)p.r(G)p.r(A)p.r(A)p.r(G)p.r(G)p.r(A)p.r(C)p.m(U)p.r(A)p.r(C)p.m(U)p.r(A)p.r(A)p.r(C)p.r(C)p.m(U)p.r(C)p.r(C)p.r(T)p.r(T)}|RNA2{r(G)p.r(G)p.r(A)p.r(G)p.r(G)p.m(U)p.m(U)p.r(A)p.r(G)p.m(U)p.r(A)p.r(G)p.m(U)p.r(C)p.r(C)p.m(U)p.m(U)p.r(C)p.m(U)p.r(T)p.r(T)}$$$RNA1{StrandType:ss}|RNA2{StrandType:as}$” gave a target mRNA knockdown of 49%. Substance “RNA1{r(A)p.r(G)p.r(A)p.r(A)p.r(G)p.r(G)p.r(A)p.r(C)p.m(U)p.r(A)p.r(C)p.m(U)p.r(A)p.r(A)p.r(C)p.r(C)p.r(U)p.r(C)p.r(C)p.r(T)p.r(T)}|RNA2{r(G)p.r(G)p.r(A)p.r(G)p.r(G)p.r(U)p.r(U)p.r(A)p.r(G)p.m(U)p.r(A)p.r(G)p.r(U)p.r(C)p.r(C)p.r(U)p.r(U)p.r(C)p.r(U)p.r(T)p.r(T)}$$$RNA1{StrandType:ss}|RNA2{StrandType:as}$” has a target mRNA knockdown of 81%. Work on “RNA1{r(A)p.r(G)p.r(A)p.r(C)p.[fl2r](U)p.r(A)p.r(A)p.r(G)p.r(C)p.r(C)p.[fl2r](C)p.r(A)p.r(A)p.r(A)p.r(A)p.r(G)p.r(G)p.r(G)p.r(C)p.r(T)p.r(T)}|RNA2{r(G)p.r(C)p.r(C)p.r(C)p.r(U)p.r(U)p.r(U)p.[fl2r](U)p.r(G)p.r(G)p.r(G)p.r(C)p.r(U)p.[fl2r](U)p.r(A)p.r(G)p.r(U)p.r(C)p.r(U)p.r(T)p.r(T)}$$$RNA1{StrandType:ss}|RNA2{StrandType:as}$” yielded a target mRNA knockdown of 45%. In the case of “RNA1{r(A)p.r(G)p.r(A)p.r(C)p.[fl2r](U)p.r(A)p.r(A)p.r(G)p.r(C)p.r(C)p.r(C)p.r(A)p.r(A)p.r(A)p.r(A)p.r(G)p.r(G)p.r(G)p.r(C)p.r(T)p.r(T)}|RNA2{r(G)p.r(C)p.r(C)p.r(C)p.r(U)p.r(U)p.r(U)p.r(U)p.r(G)p.r(G)p.r(G)p.r(C)p.r(U)p.[fl2r](U)p.r(A)p.r(G)p.r(U)p.r(C)p.r(U)p.r(T)p.r(T)}$$$RNA1{StrandType:ss}|RNA2{StrandType:as}$”, the target mRNA knockdown is reported as 47%.
